Structures are written as SMILES.

The nature of this data set: gradient 5% acetonitrile 3 min, to 50% in 2 min, to 85% in 15 min, held 3 min, 100 µL/min. Particulars: column: Zorbax Extend-C18 2.1 x 50 mm; eluents: water / acetonitrile, 0.1% formic acid. The gist of the method:
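Over 3 months, pure standards in mixtures of ~100 molecules were run by HPLC coupled to a quadrupole time-of-flight mass spectrometer in positive and negative ionization mode. The column was a Zorbax Extend-C18 (2.1 × 50 mm, 1.8 μm) at 100 μL/min, eluted with water and acetonitrile each holding 0.1% formic acid, with 40 μL dead and 900 μL dwell volumes. Retention time was determined from adduct peaks chosen by software and checked manually.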
As to `CN1C(=O)c2cccnc2Sc2cc(NC(=O)C(C)(C)C)ccc21`, the RP-LC retention time worked out at 735 s.
With `CCOC(=O)c1c(C)[nH]c(C(=O)N2CCCC(C(=O)NCCc3ccc(OCC)cc3)C2)c1C` (configuration not stated) the figure was 866 s; with `Cc1ccc(NC(=O)Cn2cnc3nc(N4CCC(C(=O)NC5CC5)CC4)sc3c2=O)c(C)c1`, 678 s.
With `CC1=C(C(=O)N2CC(c3noc(COc4ccc(C)cc4)n3)C2)C2(CCCCC2)OC1=O` the figure was 1010 s; with `COc1ccc(Cl)cc1NC(=O)NCC(c1cccnc1)c1c[nH]c2ccccc12` (configuration not stated), 728 s.
The compound `COc1ccc(OC)c(CNC(=O)[C@@H]2[C@H](c3cc(OC)c(OC)c(OC)c3)c3cc4c(cc3[C@H](O)[C@H]2CO)OCO4)c1` yielded an RP-LC retention time of 721 s.
Compound `O=C(N[C@@H]1CN(Cc2ccc3c(c2)CCO3)C[C@H]1CO)C1CCC1` yielded an RP-LC retention time of 591 s.
With `CCC(=O)N1CCc2cc(N3CC(C(=O)Nc4ccc(C)cc4)CC3=O)ccc21` (configuration not stated) the figure was 786 s.
The same measure for `CCc1ccc(NC(=O)C2CCN(S(=O)(=O)c3ccc4c(c3)S(=O)(=O)N=CN4)CC2)cc1`: 806 s.
The same measure for `Cn1cc2c3c(cccc31)CN(C(=O)c1ccc(Br)cc1)CC2`: 1030 s.
Consider `C[C@@H]1CCC2[C@](C)(CO)[C@@H](O)CC[C@]2(C)[C@]12CCC(CO)(CCO)O2` (some centres not stated), for which the RP-LC retention time amounted to 829 s.
In the case of `CC(C)c1ccc(N2C(=O)CN(S(C)(=O)=O)CC2(C)C(=O)NCc2ccc(F)cc2)cc1` (configuration not stated), the RP-LC retention time turned out to be 836 s.
The same measure for `Cc1nnc(C2CCCN(C(=O)c3cc(C(F)(F)F)cc(C(F)(F)F)c3)C2)s1` (configuration not stated): 823 s; for `COCCCNC(=O)C1c2ccccc2C(=O)N1CCc1ccc(C)cc1` (configuration not stated): 787 s.
With `Cc1cnc(CC2CCN(S(=O)(=O)Cc3ccccc3)C2)n1C(C)C` (configuration not stated) the figure was 663 s.
The same measure for `COc1ccccc1-c1csc(-c2nnn(-c3ccc(F)cc3)c2N)n1`: 1070 s.
Regarding `O=C(Cn1cccc1-c1nc(-c2ccc(Cl)cc2)cs1)NCCCN1CCCC1`, the RP-LC retention time was 826 s.
On to `CN(C)c1ccc(CNC(=O)c2nnc(-c3ccc(S(=O)(=O)N4CCCC4)cc3)o2)cc1`, for which the RP-LC retention time worked out at 688 s.
Compound `CCN(CC)C(=O)c1cc(C)nc2c1c(=O)n(Cc1nc(-c3ccccc3)oc1C)c(=O)n2C` came in with an RP-LC retention time of 996 s.
With `O=c1[nH]cc(S(=O)(=O)NC2CCCC2)c(=O)[nH]1` the figure was 600 s; with `Cc1c(Cl)cccc1NC(=O)Cn1c(=O)n(-c2ccccc2)c(=O)c2c1cc(C)n2C`, 927 s.
With `O=C(Cn1nc(C(=O)N2CCOCC2)c2ccccc21)Nc1cccc(Cl)c1` the figure was 816 s; with `Cc1ccccc1CN1C(=O)CN(S(=O)(=O)c2ccccc2)CC1(C)C(=O)NC1CCCCC1` (configuration not stated), 1020 s.
With `COc1cccc(CCC(=O)Nc2cc(-c3cccnc3)no2)c1` the figure was 756 s; with `CCC(Oc1ccc(-c2cnc3ccccc3n2)cc1)C(=O)N1CCN(c2ncccn2)CC1` (configuration not stated), 942 s; with `O=C(Cn1cnc2nc3c(cc2c1=O)CCCC3)NCCc1ccccc1`, 728 s.
Take `O=C(Nc1ccc2c(c1)CN(C(=O)c1cccs1)CC2)c1cnccn1`: the RP-LC retention time amounted to 708 s.
With `CCCN1CCN(C(=O)CC(c2cc(OC)c(OC)c(OC)c2)N2Cc3ccccc3C2=O)CC1` (configuration not stated) the figure was 626 s; with `O=C(Cc1nnc(-c2ccc3ncccc3c2)o1)NCc1ccccc1F`, 695 s; with `Cc1ccc(N2C(=O)C3N=NN(c4ccc(F)cc4)C3C2=O)cc1C` (configuration not stated), 1050 s.
`O=C(O)c1ccc(NC(=O)N2C[C@@H]3C[C@@H](C2)c2cccc(=O)n2C3)cc1`: the RP-LC retention time came to 592 s.
With `Fc1ccc(-c2nnc(Cc3nc(-c4ccc5c(c4)OCO5)no3)o2)cc1` the figure was 957 s; with `CC(C)CNS(=O)(=O)c1ccc(-c2nnc(C3CC3)o2)o1`, 809 s.
With `CCCCNC(=O)C1CCN(S(C)(=O)=O)c2ccccc2O1` (configuration not stated) the figure was 728 s; with `N#CCn1cccc1-c1nc(-c2ccncc2)no1`, 685 s; with `Cc1noc(C)c1CC(=O)NCCn1ncc2c(=O)n(Cc3ccc(F)cc3)cnc21`, 640 s.
With `CCN1C(=O)CCc2cc(NC(=O)Cc3ccc(OC)c(Cl)c3)ccc21` the figure was 798 s; with `Cc1ccccc1Oc1nccn2c(=O)n(CC(=O)Nc3ccccc3Cl)nc12`, 863 s.
Compound `O=C(Nc1ccccc1)N1CCC(N2C[C@H]3C[C@H](C2)[C@H]2CCCC(=O)N2C3)CC1` returned an RP-LC retention time of 590 s.
With `CCOC(=O)c1nc(Nc2ccc(OCC(C)C)cc2)c2ccccc2n1` the figure was 998 s; with `COc1ccc(-c2nc3cnccn3c2Nc2ccc(C)c(Cl)c2)cc1OC`, 878 s.
For the compound `CC(C)Cn1c(=O)c(C(=O)NCCc2cccnc2)nc2cccnc21`, the RP-LC retention time came out at 635 s.
The same measure for `COc1cc(CNC(=O)C2=Cc3ccccc3OC2)cc(OC)c1OC`: 835 s.
`COc1cc2c(Oc3ccc4[nH]c(C)cc4c3F)ncnc2cc1OCCCN1CCCC1`: the RP-LC retention time amounted to 709 s.
With `COc1ccc(OC)c(NC2=NS(=O)(=O)C(c3ccccc3)=C2C)c1` the figure was 948 s.
The same measure for `O=C(Cn1nc2n(c1=O)CCCC2)NCc1ccccc1`: 640 s; for `O=C(Nc1ccccc1F)N1CCN(Cc2nc3cc(Cl)ccc3o2)CC1`: 737 s; for `Cn1cc(C(=O)Nc2ccc(Cl)cc2)c2cccnc21`: 835 s.
With `Cc1cccc2nc(-c3ccc(N4CCOCC4)cc3)c(Nc3ccc4c(c3)OCO4)n12` the figure was 676 s; with `CC(C)c1nnc(-c2cccnc2N2CCN(C(=O)c3ccco3)CC2)o1`, 735 s.
Take `COc1cccc(C(=O)Nc2c(-c3ccc(F)cc3)nc3ccccn23)c1OC`: the RP-LC retention time was 667 s.
With `Cn1cc(CCN2CCC(C(=O)NCc3ccc(F)cc3)CC2)c2cccnc21` the figure was 595 s.
`CCS(=O)(=O)N1CCc2c(c(CN(C(=O)c3ccc(F)cc3)c3ccccc3)nn2C)C1` gave an RP-LC retention time of 804 s.
The same measure for `COc1ccc(-c2nc(C)c3c(n2)N(Cc2ccco2)C(=O)CC3)cc1`: 975 s.
With `CCCc1cc(C2CCCN2C(=O)Nc2ccc(C(=O)OC)cc2)no1` (configuration not stated) the figure was 807 s.
With `COc1ccc(-c2noc(-c3nn(-c4cccc(OC)c4)ccc3=O)n2)cc1` the figure was 876 s; with `Cc1nc(-c2ccc(OC3CCN(C(=O)NC4CCCCC4)C3)cc2)no1` (configuration not stated), 845 s.
`CCN1C(=O)C2(CCN(S(=O)(=O)c3c(C)noc3C)CC2)c2ccccc21` had an RP-LC retention time of 731 s.
The same measure for `CCOC(=O)c1c(C)c(C(=O)C(C)N(Cc2ccc(F)cc2)C(=O)CC)c(C)n1CC` (configuration not stated): 1080 s; for `CN1CC[C@@]2(C)c3cc(OC(=O)Nc4ccccc4)ccc3N(C)[C@@H]12`: 718 s.
The same measure for `O=C(Cc1ccc2c(c1)OCO2)N(CC1CCCO1)c1nc2c(F)cc(F)cc2s1` (configuration not stated): 1180 s; for `CCc1nncn1C1CCN(S(=O)(=O)c2cccc(C)c2)CC1`: 697 s.
With `Cc1cc(C(=O)N2CCC(c3noc(N)c3C(C)C)CC2)c(C)o1` the figure was 759 s; with `Cc1ccc(F)cc1NS(=O)(=O)c1cc(-c2[nH]ncc2C(=O)N2CCCC2)oc1C`, 739 s; with `CN(CC#N)C(=O)c1ccc(N2CCc3ccccc32)s1`, 913 s.
On to `COC(=O)C1=CN(C2CC2)c2cc(N3CCN(C4CCCCC4)CC3)c(F)cc2S1(=O)=O`, for which the RP-LC retention time was determined as 643 s.
With `Cc1ccccc1CN1C[C@@H]2C(=O)N(CCCN3CCCC3=O)C(=O)[C@@H]2C1` the figure was 606 s; with `C=CCNC(=O)c1cnn(-c2cc(-c3nc(C4CC4)no3)ccn2)c1C`, 895 s.
The same measure for `c1ccc2c(-c3nc(-c4ccc5c(c4)ncn5CCN4CCCCC4)no3)n[nH]c2c1`: 609 s; for `Cc1nn2c(CNS(=O)(=O)c3cc(F)cc(F)c3)c(-c3ccccc3)nc2s1`: 905 s.
In turn, `CCOc1ccc(S(=O)(=O)NCc2c(-c3ccccc3)nc3sc(CC)nn23)cc1` had an RP-LC retention time of 963 s.
The same measure for `Cc1ncc2c(n1)C[C@@H]1CC[C@H]2N1C(=O)NCc1ccccc1`: 642 s.
The same measure for `O=C(Nc1cc(-c2ccsc2)no1)c1ccc(Cl)cc1`: 1010 s; for `CN1C(=O)CC[C@]2(C(=O)NCc3cccc(C(F)(F)F)c3)CCCC[C@@H]12`: 744 s.
The same measure for `Cc1c(Cn2c(C)nc3c(C(=O)O)cc(N4CCOCC4)cc32)cccc1C(F)(F)F`: 741 s.
`O=C(Nc1cccnc1)c1cc(-c2ccnc(F)c2)ccc1OCc1ccccc1` displayed an RP-LC retention time of 884 s.
The same measure for `CCN(Cc1ccccc1)c1ncc(NC(=O)c2ccccc2Cl)cc1C(=O)O`: 723 s.

For the origin of these results see the METLIN SMRT retention time set (Domingo-Almenara et al. 2019).
